Values quoted from earlier work as cited in patent US20080260691A1 (priority 2004, published 2008).

Key:
[1] = in vivo
[2] = not given; remark: listed apart in the source
[3] = all animal species exposed

Nc1nc2c(ncn2COCCO)c(=O)[nH]1 [acyclovir]
bioavailability [1]: 15-30%

CC(C)[C@H](N)C(=O)OCCOCn1cnc2c(=O)[nH]c(N)nc21 [valacyclovir]
bioavailability [1]: 54%

N[C@@H](CCC(=O)O)C(=O)O [Glu]
in vitro hydrolysis t½ rat hepatic microsomes: 30 min

NCCCC[C@H](N)C(=O)O [Lys]
in vitro hydrolysis t½ rat hepatic microsomes: 14 min

N[C@@H](Cc1ccccc1)C(=O)O [Phe]
in vitro hydrolysis t½ rat hepatic microsomes: 30 min

N[C@@H](Cc1ccc(O)cc1)C(=O)O [Tyr]
in vitro hydrolysis t½ rat hepatic microsomes: 5 min

NC(=O)c1ncn([C@@H]2O[C@H](CO)[C@@H](O)[C@H]2O)n1 [ribavirin]
total bioavailability, average ([2]; averages): 64% | multiple-dose half-life ([2]; multiple-dose): 12 days | portion of drug excreted in urine as intact drug or as metabolites ([2]; oral, within 72-80 hours): approx. 53% | bioavailability (low and variable) ([2]; range): 33-69% | portion of a single oral dose excreted in feces ([2]; single oral dose, within 72 hours): Approximately 15% | teratogenic and/or embryocidal effects [3]: Significant teratogenic and/or embryocidal effects
